Biological target: 5-hydroxytryptamine receptor 2A (Homo sapiens, UniProt P28223)
Experiment: Displacement of [3H]ketanserin from human 5HT2A receptor

5-hydroxytryptamine receptor 2A, sequence (P28223 whole entry): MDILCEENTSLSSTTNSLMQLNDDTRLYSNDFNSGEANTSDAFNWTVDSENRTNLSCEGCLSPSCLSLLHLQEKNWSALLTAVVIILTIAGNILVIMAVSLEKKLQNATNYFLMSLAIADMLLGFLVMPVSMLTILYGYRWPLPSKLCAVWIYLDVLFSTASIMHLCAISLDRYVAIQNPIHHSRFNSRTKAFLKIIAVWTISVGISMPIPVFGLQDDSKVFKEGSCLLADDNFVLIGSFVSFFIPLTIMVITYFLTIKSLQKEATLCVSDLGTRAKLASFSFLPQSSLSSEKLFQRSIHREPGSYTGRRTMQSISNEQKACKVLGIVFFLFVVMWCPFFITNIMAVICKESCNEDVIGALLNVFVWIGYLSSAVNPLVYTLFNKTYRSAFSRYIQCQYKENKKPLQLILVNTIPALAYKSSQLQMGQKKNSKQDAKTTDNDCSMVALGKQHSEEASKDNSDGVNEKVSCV

| SMILES | Ki [nM] |
| --- | --- |
| COc1ccc2c(c1)C(CN)c1ccccc1C2 (centres undefined) | 1370 |
| COc1ccc2c(c1)Cc1ccccc1C2CN (centres undefined) | 7.5 |
| COc1cccc2c1Cc1ccccc1C2CN (centres undefined) | 124 |
| COc1cccc2c1C(CN)c1ccccc1C2 (centres undefined) | 1160 |

— ChEMBL document CHEMBL1141706 (Bioorg Med Chem Lett, 2008)
